Molecular target: T1, L-CPT1 (Homo sapiens, UniProt P50416)
T1 construct: made in house; host or cells: Pichia pastoris strain X-33 (pGAPZB/pGAPZA vector), crude cell-free extract
T1 sequence (P50416 1-773): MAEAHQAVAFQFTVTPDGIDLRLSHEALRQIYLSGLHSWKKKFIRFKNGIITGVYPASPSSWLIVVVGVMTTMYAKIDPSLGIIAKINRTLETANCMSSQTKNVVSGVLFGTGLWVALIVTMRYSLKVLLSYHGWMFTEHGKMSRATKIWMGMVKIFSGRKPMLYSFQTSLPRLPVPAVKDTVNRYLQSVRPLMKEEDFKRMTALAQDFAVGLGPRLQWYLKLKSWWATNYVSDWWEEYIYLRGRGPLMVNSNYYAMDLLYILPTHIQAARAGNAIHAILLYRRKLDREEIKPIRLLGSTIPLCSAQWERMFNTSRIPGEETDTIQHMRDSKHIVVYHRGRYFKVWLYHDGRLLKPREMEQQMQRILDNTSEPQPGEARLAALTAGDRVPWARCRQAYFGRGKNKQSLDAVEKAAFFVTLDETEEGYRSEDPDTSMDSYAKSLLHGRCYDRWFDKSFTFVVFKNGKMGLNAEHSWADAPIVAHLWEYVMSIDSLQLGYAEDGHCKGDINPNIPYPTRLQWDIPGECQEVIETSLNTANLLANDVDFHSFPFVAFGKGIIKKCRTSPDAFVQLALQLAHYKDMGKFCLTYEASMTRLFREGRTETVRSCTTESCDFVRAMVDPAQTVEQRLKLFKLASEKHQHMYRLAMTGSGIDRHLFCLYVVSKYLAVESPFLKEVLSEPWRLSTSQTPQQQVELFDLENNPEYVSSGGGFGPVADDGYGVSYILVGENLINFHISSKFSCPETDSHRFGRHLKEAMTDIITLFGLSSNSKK
Assay: CPT activity spectrophotometric assay with DTNB (Ellman's reagent), cell-free extracts of P. pastoris expressing CPT1
Assay type: biochemical
Conditions: carnitine 500 μM, palmitoyl-CoA 80 μM, DTNB 300 μM, absorbance at 410 nm, pH 7.4; read-out: L-CPT1 inhibition IC50
Protocol: The following tests were carried out in order to determine the activity of the compounds of the present invention. Background information on the performed assays can be found in: Jackson et al., 1999, Biochem. J. 341, 483-489 and Jackson et al., 2000, J. Biol. Chem. 275, 19560-19566.
Human liver and muscle CPT1 cDNAs and rat CPT2 cDNA were subcloned in pGAPZB or pGAPZA, respectively. These plasmids were used to transform P. pastoris strain X-33 via electroporation after the preparation of electrocompetent cells. High copy number clones were selected where necessary using 0.5 or 1 mg/ml Zeocin. Cultures for activity measurements were induced for 16 h in YPD medium (1% yeast extract, 2% peptone, 2% glucose). Crude cell extracts were prepared by disrupting the cells with glass beads or French Press, depending on fermenter sizes. After centrifugation, the cell-free extracts were resuspended in cell breaking buffer (50 mM Tris, pH 7.4, 100 mM KCl, 1 mM EDTA) in the presence of a protease inhibitor cocktail, before aliquoting and freezing at −20° C.
CPT activity was measured using a spectrophotometric assay using 5,5′-dithio-bis-(2-nitrobenzoic acid) (DTNB) also called Ellman's reagent. The HS-CoA released on the formation of acylcarnitine from carnitine (500 μM) and palmitoyl-CoA (80 μM) reduced DTNB (300 μM) forming 5-mercapto-(2-nitrobenzoic acid) witch absorbed at 410 nm with a molar coefficient extinction of 13600 M^−1·cm^−1. The assay buffer contained 120 mM KCl, 25 mM Tris, pH 7.4, 1 mM EDTA. This assay was used for the identification of selective inhibitors of the liver CPT1 isoform versus the muscle CPT1 and CPT2 isoforms.

| SMILES | IC50 |
| --- | --- |
| O=C(O)c1ccc(NC(=O)c2cccc(NS(=O)(=O)c3ccc(Cl)c(Cl)c3)c2)cc1 [Example 5, 4-[3-(3,4-Dichloro-benzenesulfonylamino)-benzoylamino]-benzoic acid] | 0.192 µM |
| O=C(O)c1ccc(NC(=O)c2ccc(Cl)c(NS(=O)(=O)c3cccc(Cl)c3)c2)cc1 [Example 21, 4-[4-Chloro-3-(3-chloro-benzenesulfonylamino)-benzoylamino]-benzoic acid] | 0.153 µM |
| COc1cc(C(=O)Nc2ccc(C(=O)O)cc2)cc(NS(=O)(=O)c2cc(Cl)cc(Cl)c2)c1OC [Example 32, 4-[3-(3,5-Dichloro-benzenesulfonylamino)-4,5-dimethoxy-benzoylamino]-benzoic acid] | 0.881 µM |

Reference: patent US7723538B2, “Sulfonamides as L-CPT1 inhibitors” (Hoffmann-La Roche Inc., priority 2005, dated 2010)
